A short description of this data set: Stability of ascorbic acid and reduced glutathione in solution over time (chromatography with electrospray MS / photo diode array detection). As to conditions: stored at room temperature. Type of data set: physicochemical. As for the experimental part: A second solution and the final formulation from Example 1 were analyzed to evaluate the stability of ascorbic acid and reduced glutathione over a period of time at room temperature. The final formulation was formed by mixing together the first and second solutions and its pH was adjusted to about 7.4. […] The stability of ascorbic acid and the stability of reduced glutathione were determined over a period of time in both solutions. Both the final formulation and the second solution were stored at room temperature. The chromatography method developed and employed for this study separated the ascorbic acid and glutathione reproducibly and without any mutual interference between the components or their decomposition products. Two components were detected using electrospray spectrometry in +ve selected ion monitoring mode. In addition L-Ascorbic acid, and L-glutathione were also detected by photo diode array absorbing in the 190-400 nm range. The integrated chromatographic intensities of each of the component peaks was a measure of its molar quantity in solution analyzed. The pH, conductivity, and osmolalities were also measured for each sample. The stability indicating properties of GALA were evaluated at: 40° C.±2° C./75% RH±5% Relative Humidity (RH). A qualified stability chamber with uniform and constant temperature and relative humidity was used for storing the product containers. The chamber's thermometer and digital readout were recorded daily. Samples received for the proposed stability study were logged and tracked in a Sample Receipt and Storage Log and maintained at 2-8° C. until the commencement of the study. A minimum of twenty one containers of the device from each representative batch of the first and second solutions were placed in the stability chamber maintained at 40° C.±2° C./75% RH±5% RH. This date was recorded as the zero time point. Three containers of each of the first and second solutions were pulled at 0, 5, 9, 15, 30, 50, and 80-day intervals from the stability chamber for testing.

[1] abbreviates: in the final formulation (first and second solutions mixed) having a pH of about 7.4.
Setting [2] is: in the second solution having a pH of about 3.0.

The values below come from US20150313209A1, “SOLUTION FOR PRESERVING VASCULAR CONDUITS” (SOMAHLUTION, LLC, priority 2012, published 2015).

Regarding `O=C1O[C@H]([C@@H](O)CO)C(O)=C1O` [ascorbic acid, L-ascorbic acid], the rate of decay entry runs as follows: under setting [1], “about 15 mg per day”; under setting [2], “about 3 mg per day”.
The corresponding values for `N[C@@H](CCC(=O)N[C@@H](CS)C(=O)NCC(=O)O)C(=O)O` [reduced glutathione, L-glutathione (reduced)] are “about 6 mg per day” and “about 3 mg per day”.
